According to patent publication US20250326708A1, “LONG-ACTING SPLEEN-TARGETING CATIONIC LIPID COMPOUND COMPRISING BENZENE RING STRUCTURE, COMPOSITION COMPRISING SAME, AND USE THEREOF” (Beijing Youcarekechuang Pharmaceutical Technology Co., Ltd., priority 2024, published 2025):

Columns and labels:
female BALB/C mice [1] = experiment: Expression of delivered mRNA in different organs of mice (organ imaging); type: in vivo; conditions: 6 hours after 5 μg Fluc-mRNA subcutaneously
Protocol: LNP preparations containing 5 μg of Fluc-mRNA were subcutaneously injected into female BALB/C mice (4 to 6 weeks old, weighing 17 to 19 g). At specified time points after administration (6 h), the mice were intraperitoneally injected with fluorescent imaging substrates and allowed to move freely for 5 minutes. The average radiation intensity (corresponding to fluorescence intensity) of proteins expressed by the mRNA delivered by the LNP preparations in the mice in vivo was then detected using the IVIS Spectrum small-animal in vivo imaging system. After sampling, the mice were killed by cervical dislocation and dissected, and the internal organs: heart, liver, spleen, lung, kidney, and lymph of mice were accurately isolated. The average radiation intensity (corresponding to fluorescence intensity) of proteins expressed by the mRNA delivered by the LNP preparations in various organs of mice was then detected using the IVIS Spectrum small-animal in vivo imaging system.

293T cells [2] = experiment: Cell viability assay (CCK-8) with LNP preparations of Fluc-mRNA; type: cell-based; conditions: LNP with 1.5 μg Fluc-mRNA, 24 hours, CCK-8
Protocol: (§1) Cell recovery and passage: 293T cells were recovered and cultured in culture dishes. The cells were passaged until the required number of cells was obtained.
(§2) Seeding plates: The cells in culture dishes were digested and counted, then seeded in a 96-well plate at 10,000 cells per well and seeded in a 12-well plate at 150,000 cells per well. The cells were cultured overnight until cell adhesion.
(§3) The cationic lipids listed in Table 2 were each mixed with DSPC (AVT (Shanghai) Pharmaceutical Technology Co., Ltd.), cholesterol (AVT (Shanghai) Pharmaceutical Technology Co., Ltd.), and DMG-PEG2000 in a molar ratio of 49:10:39.5:1.5 and dissolved in ethanol to prepare ethanol lipid solutions. Using the ethanol injection method, the ethanol lipid solutions were quickly added to a citrate buffer (pH between 4 and 5), and vortexed for 30 seconds for later use. eGFP-mRNA (purchased from Shanghai BioHub Biotechnology Co., Ltd.), Fluc-mRNA (purchased from Shanghai BioHub Biotechnology Co., Ltd.), or Cy5 fluorescently labeled Leqvio (purchased from Sangon Biotech (Shanghai) Co., Ltd.) was diluted in a citrate buffer (pH between 4 and 5) to obtain an mRNA aqueous solution. A certain volume of the lipid solution and the mRNA aqueous solution were mixed to prepare liposomes at a total lipid-to-mRNA weight ratio of 15:1. The mixtures were sonicated at 25° C. for 15 minutes (ultrasonic frequency: 40 kHz, ultrasonic power: 800 W). The resulting liposomes were diluted 10-fold with PBS, followed by ultrafiltration using a 300 kDa ultrafiltration tube to remove ethanol. After adjusting the volume with PBS, LNP preparations encapsulating eGFP-mRNA or Fluc-mRNA were obtained, using cationic lipids, DSPC, cholesterol, and DMG-PEG2000 at a molar ratio of 49:10:39.5:1.5.
(§4) Cell recovery and passage: The method was the same as described in Example 3.
(§5) Seeding plates: The method was the same as described in Example 3.
LNP preparations containing 1.5 μg of Fluc-mRNA (with the vector components of the LNP preparations of cationic lipids, DSPC, cholesterol, and DMG-PEG2000 in a molar ratio of 49:10:39.5:1.5, where the cationic lipids are those listed in Table 1) were added to the cell culture medium in a 96-well plate. After 24 hours of continued culture, 10 μL of CCK-8 solution was added to each well, and the culture plate was incubated in an incubator for 1 hour.

293T cells [3] = experiment: Fluorescence detection of Fluc-mRNA (transfection efficiency) of LNP preparations; type: cell-based; conditions: for Relative light unit (RLU): LNP with 0.3 μg Fluc-mRNA, 96-well plate, 24 hours
Protocol: as §1, §2, §3, §4, §5
LNP preparations containing 0.3 μg of Fluc-mRNA (with the vector components of the LNP preparations of cationic lipids, DSPC, cholesterol, and DMG-PEG2000 in a molar ratio of 49:10:39.5:1.5, where the cationic lipids are those listed in Table 1) were added to the cell culture medium in a 96-well plate. After 24 hours of continued culture, the corresponding reagents were added according to the instructions in the Gaussia Luciferase Assay Kit. Fluorescence intensity in each well was detected using the IVIS fluorescence detection system. The transfection efficiency of LNP preparations prepared with a series of cationic lipid compounds designed in the present disclosure, as well as cationic lipids from the prior art, including SM-102, HHMA, MC3, compound 7, and I-1, is shown in Table 4.

[4] = Particle size and polydispersity index (PDI) of lipid nanoparticles, dynamic light scattering; type: physicochemical; conditions: LNP preparation with the named cationic lipid; 90° scattering angle, 25° C
Description: as §3
The particle size and polydispersity index (PDI) were measured using dynamic light scattering with a Malvern laser diffraction particle size analyzer.
10 μL of liposome solution was diluted to 1 mL with RNase-free deionized water and added to the sample cell. Each sample was measured three times. The measurement conditions were as follows: 90° scattering angle, 25° C.

female BALB/C mice [5] = experiment: Expression of delivered mRNA in mice in vivo (IVIS in vivo imaging); conditions: 10 μg Fluc-mRNA via tail vein
Protocol: LNP preparations containing 10 μg of Fluc-mRNA were injected via the tail vein into female BALB/C mice (4 to 6 weeks old, weighing 17 to 19 g). At specified time points after administration (6 h, 24 h, 48 h, and 7 d), the mice were intraperitoneally injected with fluorescent imaging substrates and allowed to move freely for 5 minutes. The average radiation intensity (corresponding to fluorescence intensity) of proteins expressed by the mRNA delivered by the LNP preparations in the mice in vivo was then detected using the IVIS Spectrum small-animal in vivo imaging system.

Row | PDI [4] [%] | Particle size [4] [nm] | Structure (SMILES) | Cell viability (293T cells [2]) [%] | Relative light unit (RLU) (293T cells [3]) | other results
1 | 12.2 | 141 | CCCCCCCCCCCCSSCCNC(=O)CCN1CCN(CCCCCC(=O)OCCC(CCCCCC)CCCCCC)CC1 [YK-506, reference compound] | 90 | 654224 | Average radiation intensity of mouse organs: Heart (female BALB/C mice [1]): 0; Average radiation intensity of mouse organs: Kidney (female BALB/C mice [1]): 0; Average radiation intensity of mouse organs: Liver (female BALB/C mice [1]): 18913; Average radiation intensity of mouse organs: Lung (female BALB/C mice [1]): 0; Average radiation intensity of mouse organs: Lymph (female BALB/C mice [1]): 0; Average radiation intensity of mouse organs: Spleen (female BALB/C mice [1]): 71213; Average radiation intensity, in vivo imaging (female BALB/C mice [5]; 6 h): 1801233; Average radiation intensity, in vivo imaging (female BALB/C mice [5]; 24 h): 257765; Average radiation intensity, in vivo imaging (female BALB/C mice [5]; 48 h): 82221; Average radiation intensity, in vivo imaging (female BALB/C mice [5]; 7 d): 34234
2 | 15.7 | 151 | CCCCC/C=C\C/C=C\CCCCCCCCC(CCCCCCCC/C=C\C/C=C\CCCCC)OC(=O)CCCN(C)C [MC3, reference compound] | 74 | 94904 | 
3 | 16.2 | 159 | CCCCCCCCCCCCCCNC(=O)CCCCCNC(CO)(CO)CCc1ccc(CCCCCCCC)cc1 [YK-907, 6-((1-hydroxy-2-(hydroxymethyl)-4-(4-octylphenyl)butan-2-yl)amino)-N-tetradecylhexanamide] | 73 | 37699 | 
4 | 10.2 | 124 | CCCCCCCCCCOC(=O)CCCN(CCCCCC(=O)OCC(CCCCCCCC)CCCCCCCC)CCNC(CO)(CO)CCc1ccc(CCCCCCCC)cc1 [YK-906, 2-octyldecyl 6-((4-(decyloxy)-4-oxobutyl) (2-((1-hydroxy-2-(hydroxymethyl)-4-(4-octylphenyl)butan-2-yl)amino)ethyl)amino) hexanoate] | 63 | 27546 | 
5 | 17.4 | 162 | CCCCCCCCCCC(CCCCCCCCCC)CCCOC(=O)CCCCCNC(CO)(CO)CCc1ccc(CCCCCCCC)cc1 [YK-901, 4-decyltetradecyl 6-((1-hydroxy-2-(hydroxymethyl)-4-(4-octylphenyl)butan-2-yl)amino) hexanoate] | 58 | 43423 | 
6 | 10.4 | 136 | CCCCCCCCc1ccc(CCC(CO)(CO)NCCCCCCC(=O)OCC(CCCCCCCC)CCCCCCCC)cc1 [YK-911, 2-octyldecyl 7-((1-hydroxy-2-(hydroxymethyl)-4-(4-octylphenyl)butan-2-yl)amino) heptanoate] | 62 | 1299055 | 
7 | 16.2 | 158 | CCCCCCCCC(CCCCCC)COC(=O)CCCCCN(CCCCCC(=O)OCC(CCCCCC)CCCCCCCC)CCCCC(=O)OCc1ccccc1.I (centres unmarked) [I-1, bis(2-hexyldecyl) 6,6′-((5-(benzyloxy)-5-oxopentyl)azanediyl)dihexanoate, reference compound] | 68 | 202730 | 
8 | 16.3 | 146 | CCCCCCCCCCCCC(O)CN(C)CCCCCC(=O)OCC(CCCCCC)CCCCCCCC (centres unmarked) [HHMA, reference compound] | 77 | 1011156 | 
9 | 16.9 | 135 | CCCCCCCCCCCOC(=O)CCCCCNC(CO)(CO)CCc1ccc(CCCCCCCC)cc1 [YK-905, undecyl 6-((1-hydroxy-2-(hydroxymethyl)-4-(4-octylphenyl)butan-2-yl)amino) hexanoate] | 51 | 72425 | 
10 | 14.3 | 162 | CCCCCCCCC(CCCCCC)COC(=O)CCCCCN(CCCCCC(=O)OCC(CCCCCC)CCCCCCCC)CCN(CCO)c1ccccc1 (centres unmarked) [Compound 7, bis(2-hexyldecyl) 6,6′-((2-((2-hydroxyethyl) (phenyl)amino)ethyl)azanediyl)dihexanoate, reference compound] | 73 | 257490 | Average radiation intensity, in vivo imaging (female BALB/C mice [5]; 6 h): 1847654; Average radiation intensity, in vivo imaging (female BALB/C mice [5]; 24 h): 185473; Average radiation intensity, in vivo imaging (female BALB/C mice [5]; 48 h): 96543; Average radiation intensity, in vivo imaging (female BALB/C mice [5]; 7 d): 8511
11 | 15.1 | 152 | CCCCCCCCCCOC(=O)CCCNC(CO)(CO)CCc1ccc(CCCCCCCC)cc1 [YK-903, decyl 4-((1-hydroxy-2-(hydroxymethyl)-4-(4-octylphenyl)butan-2-yl)amino) butanoate] | 47 | 25006 | 
12 | 12.4 | 142 | CCCCCCCCCCC(CCCCCCCCCC)CCCOC(=O)CCCNC(CO)(CO)CCc1ccc(CCCCCCCC)cc1 [YK-902, 4-decyltetradecyl 4-((1-hydroxy-2-(hydroxymethyl)-4-(4-octylphenyl)butan-2-yl)amino) butanoate] | 36 | 311132 | Cellular transfection efficiency, times that of HHMA (293T cells [3]; Fluc-mRNA LNP, vs HHMA): 0.31 times; Cellular transfection efficiency, times that of I-1 (293T cells [3]; Fluc-mRNA LNP, vs I-1): 1.53 times; Cellular transfection efficiency, times that of MC3 (293T cells [3]; Fluc-mRNA LNP, vs MC3): 3.28 times; Cellular transfection efficiency, times that of SM-102 (293T cells [3]; Fluc-mRNA LNP, vs SM-102): 0.22 times; Cellular transfection efficiency, times that of YK-501 (293T cells [3]; Fluc-mRNA LNP, vs YK-501): 6.73 times; Cellular transfection efficiency, times that of YK-506 (293T cells [3]; Fluc-mRNA LNP, vs YK-506): 0.48 times; Cellular transfection efficiency, times that of compound 7 (293T cells [3]; Fluc-mRNA LNP, vs compound 7): 1.21 times
13 | 8.2 | 112 | CCCCCCCCCCCOC(=O)CCCCCCNC(CO)(CO)CCc1ccc(CCCCCCCC)cc1 [YK-904, undecyl 7-((1-hydroxy-2-(hydroxymethyl)-4-(4-octylphenyl)butan-2-yl)amino) heptanoate] | 52 | 125048 | Average radiation intensity, in vivo imaging (female BALB/C mice [5]; 6 h): 1116384; Average radiation intensity, in vivo imaging (female BALB/C mice [5]; 24 h): 115355; Average radiation intensity, in vivo imaging (female BALB/C mice [5]; 48 h): 28552; Average radiation intensity, in vivo imaging (female BALB/C mice [5]; 7 d): 3243
